Patent publication US20130324522A1, “INSECT ODORANT RECEPTOR ANTAGONISTS” (THE ROCKEFELLER UNIVERSITY, priority 2010, published 2013)

Legend:
Format in all cases: cell-based
[1] = target: OR8/OR7 (Anopheles gambiae, UniProt Q7PUT5+Q7QCC7); assay: Ca2+-imaging of stable HEK293T cell line OR8/OR7; conditions: for inhibition at 4 µM: HEK-293T, compound applied at 4 μM, read-out: Percent Inhibition OR8 OR7
Protocol: (§1) Full-length cDNAs for mosquito (Anopheles gambiae) odorant receptor (OR1, OR2, OR7, OR8, OR28), and fly (Drosophila melanogaster) odorant receptor (Or47a, Or83b), mouse TRP channel (TRPM8), and mouse serotonin receptor (5HT3) were obtained and subcloned into mammalian expression vectors. The following mammalian expression vectors were used:
(§2) Stable cell lines OR1/OR7, OR2/OR7, OR8/OR7, OR10/OR7, OR28/OR7 and TRPM8 were generated from HEK293T cells. HEK293T-based cell lines were cultured in DMEM supplemented with these additional antibiotics: 6 μg/mL blasticidin and 1 μg/mL puromycin, with the exception of the TRPM8 cell lines, which was cultured in DMEM supplemented with 1 μg/mL puromycin.
(§3) Cells were trypsinized and split into 35 mm dishes one day before transfection. Confluent cells (60-70%) in 35 mm dishes were transfected with 1 μg of insect OR(X) plasmids in pME18s-bla and 1 μg of OR7-pME18s-puro using lipofectamine 2000. For Anopheles odorant receptors, two plasmids were co-transfected into HEK cells: the ligand-specific receptor (OR1, OR2, OR8, OR28) and the corresponding olfactory co-receptor: OR7. Cell lines containing TRPM8 were transfected with single plasmid.
(§4) Stable cell lines were cultured in 10 cm dishes, and confluent cells (70-80%) were trypsinized. 10,000 cells/20 μL were transferred into each well of 384-well plates coated with poly-D-lysine, and cultured for 2 days. For Flip-In T-Rex cells (cell lines expressing Or47a/Or83b and 5HT3), 5 μL of tetracycline (5 μg/mL) were added 1 day before the assay. 20 μL of Ca-4 dye was loaded into each well for 1.5 hr at room temperature in the dark, and the dye-loaded plates were subjected to Ca^2+-imaging using a Hamamatsu FDSS6000 real time fluorescence plate reader. Odorant solutions (9× final concentration) were prepared by dissolving 1M stock solutions into Hank's Buffered Salt Solution (HBSS), and 30 μL of odor solution was transferred to each well in 384-well plates.
(§5) Compounds ([…] in DMSO) were stored in 384-well plates, and last two columns (32 wells total) contained only DMSO. 200 nL of small compounds were transferred into the odorant plates before the assay using the Perkin-Elmer Janus workstation. The odorant plates were spun down to remove air bubbles, and placed on the FDSS6000 plate loader, and 5 μL of odorant solution was applied to the cell plate on the FDSS6000. Ca^2+ increase was monitored with fluorescence at 525 nm by excitation at 485 nm.

[2] = target: OR10/OR7 (Anopheles gambiae, UniProt B5U0U7+Q7QCC7); assay: Ca2+-imaging of stable HEK293T cell line OR10/OR7; conditions: for inhibition at 4 µM: HEK-293T, compound applied at 4 μM, read-out: Percent Inhibition OR10 OR7; for IC50: Table B, read-out: IC50 OR10
Protocol: as §2
After one day of incubation, the transfected cells were transferred into 10 cm dishes with DMEM containing antibiotics as follows: • 0.5 μg/mL of blasticidin for OR1/OR7, OR2/OR7, OR8/OR7, OR10/OR7, OR28/OR7 • 0.2 μg/mL of puromycin for TRPM8.
as §4, §5

[3] = target: OR28/OR7 (Anopheles gambiae, UniProt A0A1S4GFY3+Q7QCC7); assay: Ca2+-imaging of stable HEK293T cell line OR28/OR7; conditions: for inhibition at 4 µM: HEK-293T, compound applied at 4 μM, read-out: Percent Inhibition OR28 OR7; for IC50: Table B, read-out: IC50 OR28
Protocol: as §1, §2, §3, §4, §5

[4] = target: T1, mOREG (Mus musculus, UniProt Q920P2); assay: Ca2+-imaging, control receptor mOREG; conditions: compound applied at 4 μM; read-out: Percent Inhibition mOREG
T1 sequence (Q920P2 1-313): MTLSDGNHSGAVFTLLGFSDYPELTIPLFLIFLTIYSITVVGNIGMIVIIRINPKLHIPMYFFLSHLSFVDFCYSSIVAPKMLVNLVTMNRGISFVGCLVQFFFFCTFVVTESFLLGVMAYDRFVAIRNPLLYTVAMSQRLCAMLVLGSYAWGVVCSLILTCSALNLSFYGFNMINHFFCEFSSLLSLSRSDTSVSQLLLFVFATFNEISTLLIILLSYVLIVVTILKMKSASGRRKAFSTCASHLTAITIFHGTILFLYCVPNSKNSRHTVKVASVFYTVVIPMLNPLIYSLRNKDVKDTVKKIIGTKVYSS
Protocol: as §4, with “plates. The last two columns of the plate (32 wells total) were used as control wells as follows: • negative control with HBSS buffer (16 wells) • positive control with ligands (16 wells).” for “plates.”
as §5

[5] = target: T2, TRP channel (TRPM8) (Mus musculus, UniProt Q8R4D5); assay: Ca2+-imaging of stable HEK293T cell line TRPM8; conditions: HEK-293T; compound applied at 4 μM; read-out: Percent Inhibition TRPM8
T2 construct: Full-length cDNAs for mosquito (Anopheles gambiae) odorant receptor (OR1, OR2, OR7, OR8, OR28), and fly (Drosophila melanogaster) odorant receptor (Or47a, Or83b), mouse TRP channel (TRPM8); expressed in transfected cells
Protocol: as §1, §2, §3, §4, §5

Chain of OR8/OR7 (Q7QCC7 whole entry): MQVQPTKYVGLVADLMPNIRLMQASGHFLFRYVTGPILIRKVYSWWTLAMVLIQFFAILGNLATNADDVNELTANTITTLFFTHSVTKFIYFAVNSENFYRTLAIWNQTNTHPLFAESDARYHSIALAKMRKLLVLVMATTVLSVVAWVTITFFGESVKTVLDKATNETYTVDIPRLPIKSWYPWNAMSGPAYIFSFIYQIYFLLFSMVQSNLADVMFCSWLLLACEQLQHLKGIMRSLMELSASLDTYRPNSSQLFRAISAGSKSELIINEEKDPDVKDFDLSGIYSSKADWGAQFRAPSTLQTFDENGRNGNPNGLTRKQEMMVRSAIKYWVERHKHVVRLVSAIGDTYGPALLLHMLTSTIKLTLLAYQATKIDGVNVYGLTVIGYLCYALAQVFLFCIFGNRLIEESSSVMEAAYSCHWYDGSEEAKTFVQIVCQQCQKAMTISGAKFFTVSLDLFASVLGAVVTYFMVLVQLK
Chain of OR8/OR7 (Q7PUT5 entry or part of it): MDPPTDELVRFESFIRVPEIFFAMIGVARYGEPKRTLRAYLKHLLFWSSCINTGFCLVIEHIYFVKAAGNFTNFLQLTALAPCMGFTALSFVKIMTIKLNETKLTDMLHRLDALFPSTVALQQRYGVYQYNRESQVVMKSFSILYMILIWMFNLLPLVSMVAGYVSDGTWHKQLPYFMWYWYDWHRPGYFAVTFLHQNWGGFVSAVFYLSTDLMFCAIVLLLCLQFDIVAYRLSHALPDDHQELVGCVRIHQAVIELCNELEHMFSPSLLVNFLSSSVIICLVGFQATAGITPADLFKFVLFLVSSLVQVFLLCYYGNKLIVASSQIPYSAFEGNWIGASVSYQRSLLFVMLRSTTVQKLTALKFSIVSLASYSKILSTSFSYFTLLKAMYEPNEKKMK
Chain of OR10/OR7 (Q7QCC7 whole entry): as the sequence (Q7QCC7 whole entry) above
Chain of OR10/OR7 (B5U0U7 entry or part of it): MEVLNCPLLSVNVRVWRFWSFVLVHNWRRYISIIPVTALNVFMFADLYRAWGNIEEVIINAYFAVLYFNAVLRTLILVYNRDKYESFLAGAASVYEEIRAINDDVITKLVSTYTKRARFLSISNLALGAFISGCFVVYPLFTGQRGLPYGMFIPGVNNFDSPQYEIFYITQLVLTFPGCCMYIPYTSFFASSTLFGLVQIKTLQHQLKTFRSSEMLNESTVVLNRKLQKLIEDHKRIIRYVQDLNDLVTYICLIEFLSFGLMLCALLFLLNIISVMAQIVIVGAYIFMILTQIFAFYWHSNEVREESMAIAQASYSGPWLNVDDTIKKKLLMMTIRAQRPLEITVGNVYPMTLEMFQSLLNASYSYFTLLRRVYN
Chain of OR28/OR7 (A0A1S4GFY3 entry or part of it): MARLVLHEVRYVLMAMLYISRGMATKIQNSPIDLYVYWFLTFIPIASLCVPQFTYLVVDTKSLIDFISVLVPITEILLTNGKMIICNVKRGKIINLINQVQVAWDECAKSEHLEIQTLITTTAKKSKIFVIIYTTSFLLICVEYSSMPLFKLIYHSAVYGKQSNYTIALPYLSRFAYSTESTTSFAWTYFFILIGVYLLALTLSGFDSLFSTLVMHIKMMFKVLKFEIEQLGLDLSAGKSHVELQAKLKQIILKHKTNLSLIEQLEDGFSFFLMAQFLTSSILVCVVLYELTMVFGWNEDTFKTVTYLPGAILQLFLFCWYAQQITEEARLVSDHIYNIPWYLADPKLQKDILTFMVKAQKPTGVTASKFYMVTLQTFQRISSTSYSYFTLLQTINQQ
Chain of OR28/OR7 (Q7QCC7 whole entry): as the sequence (Q7QCC7 whole entry) above
T2 sequence (Q8R4D5 whole entry): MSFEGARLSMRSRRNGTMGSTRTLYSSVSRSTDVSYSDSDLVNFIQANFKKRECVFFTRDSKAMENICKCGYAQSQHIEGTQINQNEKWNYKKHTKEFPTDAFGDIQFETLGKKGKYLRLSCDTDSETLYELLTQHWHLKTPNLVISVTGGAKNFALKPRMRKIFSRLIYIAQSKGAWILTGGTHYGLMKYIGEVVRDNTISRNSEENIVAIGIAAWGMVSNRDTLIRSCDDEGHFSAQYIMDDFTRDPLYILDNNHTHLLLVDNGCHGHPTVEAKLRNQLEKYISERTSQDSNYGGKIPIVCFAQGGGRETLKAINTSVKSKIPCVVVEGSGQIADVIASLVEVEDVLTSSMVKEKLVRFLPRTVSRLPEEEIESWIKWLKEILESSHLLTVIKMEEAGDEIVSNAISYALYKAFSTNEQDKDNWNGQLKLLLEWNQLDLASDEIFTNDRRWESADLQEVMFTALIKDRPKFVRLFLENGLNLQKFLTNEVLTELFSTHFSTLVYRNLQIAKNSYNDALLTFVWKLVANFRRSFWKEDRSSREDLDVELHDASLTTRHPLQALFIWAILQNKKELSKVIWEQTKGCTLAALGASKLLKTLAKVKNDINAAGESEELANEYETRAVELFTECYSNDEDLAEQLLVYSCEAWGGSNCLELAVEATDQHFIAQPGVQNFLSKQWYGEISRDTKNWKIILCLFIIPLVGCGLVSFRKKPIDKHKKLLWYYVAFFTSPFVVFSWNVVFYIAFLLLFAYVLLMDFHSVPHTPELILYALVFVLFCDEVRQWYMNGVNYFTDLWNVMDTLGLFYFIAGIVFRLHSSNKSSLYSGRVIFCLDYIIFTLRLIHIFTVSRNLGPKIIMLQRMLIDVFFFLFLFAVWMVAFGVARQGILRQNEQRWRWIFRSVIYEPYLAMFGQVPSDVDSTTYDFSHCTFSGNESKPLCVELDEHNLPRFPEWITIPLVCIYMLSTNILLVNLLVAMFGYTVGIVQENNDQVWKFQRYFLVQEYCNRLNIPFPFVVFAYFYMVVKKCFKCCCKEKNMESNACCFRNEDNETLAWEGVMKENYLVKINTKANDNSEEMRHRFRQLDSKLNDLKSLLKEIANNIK

| SMILES | inhibition at 4 µM [1] [%] | IC50 ([1]; Table B, read-out: IC50 OR8) [nM] | inhibition at 4 µM [2] [%] | inhibition at 4 µM [3] [%] | IC50 [3] [nM] | inhibition at 4 µM [4] [%] | inhibition at 4 µM [5] [%] | IC50 [2] [nM] |
| --- | --- | --- | --- | --- | --- | --- | --- | --- |
| CCN(CC)c1onc(-c2ccc(F)cc2)c1CN(CCCOC)C(=O)c1ccc2c(c1)OCO2 [RU-0036983] | 51 to 74 | > 1000 | 26 to 50 | > 75 | < 100 | 26 to 50 | 26 to 50 | – |
| COc1cccc(NC(=O)CCC2CCN(C(=O)CSc3ccccc3)CC2)c1 [RU-0032474] | < 25 | – | < 25 | 51 to 74 | < 100 | < 25 | < 25 | – |
| COc1ccc(-n2c(Cc3ccccc3)nnc2SCCCC(=O)N2CCN(C(=O)c3ccc(C(F)(F)F)cc3)C(C)C2)cc1 (centres unmarked) [RU-0071828] | < 25 | – | 26 to 50 | > 75 | < 100 | 26 to 50 | < 25 | > 1000 |
| CCc1cc(N2CCCC2)nc(SCc2ccc(C(=O)N3CCOCC3)o2)n1 [RU-0047568] | 26 to 50 | – | > 75 | > 75 | < 100 | 26 to 50 | 26 to 50 | < 100 |
| COCCCN(Cc1c(-c2ccccc2)noc1N(C)C(C)C)C(=O)c1ccccc1OC [RU-0037003] | 26 to 50 | – | < 25 | > 75 | < 100 | 26 to 50 | < 25 | – |
| Fc1ccccc1/C=N/Nc1nc(N2CCCCC2)nc(N2CCOCC2)n1 [RU-0018338] | < 25 | – | 26 to 50 | 51 to 74 | < 100 | 26 to 50 | 26 to 50 | – |
| N#Cc1ccccc1C(=O)N1CCOC(COCc2c(Cl)cccc2Cl)C1 (centres unmarked) [RU-0050405] | 26 to 50 | – | 26 to 50 | > 75 | < 100 | < 25 | < 25 | > 1000 |
| CN(C)c1ccc(C(=O)N2CCOC(COCc3ccccc3F)C2)cc1 (centres unmarked) [RU-0050325] | 26 to 50 | – | < 25 | > 75 | < 100 | < 25 | < 25 | – |
| COCCN(Cc1c(-c2ccccc2)noc1N1CCSCC1)CC(O)COCc1ccco1 (centres unmarked) [RU-0037278] | 26 to 50 | – | 26 to 50 | > 75 | < 100 | 26 to 50 | < 25 | – |
| CC(C)CN(Cc1nccn1Cc1ccc(Cl)cc1Cl)C(=O)c1ccccc1F [RU-0055322] | < 25 | – | 51 to 74 | > 75 | < 100 | 26 to 50 | < 25 | < 100 |
